We go through two molecules from PMC11649115, “In vitro safety evaluation of dopamine D3R antagonist, R-VK4-116, as a potential medication for the treatment of opioid use disorder” (PLOS ONE, 2024).

Molecules are shown by their SMILES.

One data set deals with CYP3A4 (Homo sapiens, UniProt P08684). The data set is described as follows: in vitro. The following applies: microsomes.
The target of data set [1] is T1, CYP2C8 (Homo sapiens, UniProt P10632).
T1 sequence (P10632 1-490): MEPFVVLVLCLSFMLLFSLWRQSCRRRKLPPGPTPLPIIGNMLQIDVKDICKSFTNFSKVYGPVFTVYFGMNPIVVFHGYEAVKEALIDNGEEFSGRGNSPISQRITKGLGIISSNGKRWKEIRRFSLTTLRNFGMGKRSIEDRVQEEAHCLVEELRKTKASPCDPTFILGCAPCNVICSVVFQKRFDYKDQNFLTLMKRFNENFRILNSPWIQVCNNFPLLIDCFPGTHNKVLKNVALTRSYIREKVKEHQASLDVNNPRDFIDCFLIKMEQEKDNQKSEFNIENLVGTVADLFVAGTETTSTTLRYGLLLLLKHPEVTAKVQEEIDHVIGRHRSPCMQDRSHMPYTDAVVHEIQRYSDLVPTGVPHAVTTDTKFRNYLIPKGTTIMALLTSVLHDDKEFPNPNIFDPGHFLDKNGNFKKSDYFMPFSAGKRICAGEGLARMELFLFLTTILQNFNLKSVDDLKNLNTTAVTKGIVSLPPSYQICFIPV
Description: CYP inhibition in human liver microsomes. As to conditions: human, human liver microsomes, probe paclitaxel.

Data set [2] has as its target T2, CYP1A2 (Homo sapiens, UniProt P05177).
T2 sequence (P05177 1-516): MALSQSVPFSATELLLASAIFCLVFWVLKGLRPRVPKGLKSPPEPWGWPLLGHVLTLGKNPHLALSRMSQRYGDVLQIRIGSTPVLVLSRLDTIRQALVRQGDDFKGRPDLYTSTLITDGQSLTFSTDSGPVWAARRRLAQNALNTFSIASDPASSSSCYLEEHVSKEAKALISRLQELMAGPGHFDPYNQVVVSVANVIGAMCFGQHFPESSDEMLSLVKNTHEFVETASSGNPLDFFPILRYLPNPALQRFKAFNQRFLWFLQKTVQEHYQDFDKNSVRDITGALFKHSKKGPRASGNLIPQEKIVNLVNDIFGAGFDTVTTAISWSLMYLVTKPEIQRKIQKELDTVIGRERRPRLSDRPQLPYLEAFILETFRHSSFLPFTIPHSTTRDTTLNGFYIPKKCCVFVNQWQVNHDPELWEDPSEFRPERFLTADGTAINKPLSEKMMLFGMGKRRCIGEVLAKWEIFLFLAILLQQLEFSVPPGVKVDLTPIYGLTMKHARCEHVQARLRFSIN
Description: in vitro. The following applies: microsomes.

The target in a further data set is CYP2D6 (Homo sapiens, UniProt P10635). The data set is described as follows: CYP inhibition in human liver microsomes. As to conditions: human, human liver microsomes, probe bufuralol. A general note: Microsomes from liver hold many membrane-bound enzymes, among them those of drug oxidation.
CYP2D6, sequence (P10635 whole entry): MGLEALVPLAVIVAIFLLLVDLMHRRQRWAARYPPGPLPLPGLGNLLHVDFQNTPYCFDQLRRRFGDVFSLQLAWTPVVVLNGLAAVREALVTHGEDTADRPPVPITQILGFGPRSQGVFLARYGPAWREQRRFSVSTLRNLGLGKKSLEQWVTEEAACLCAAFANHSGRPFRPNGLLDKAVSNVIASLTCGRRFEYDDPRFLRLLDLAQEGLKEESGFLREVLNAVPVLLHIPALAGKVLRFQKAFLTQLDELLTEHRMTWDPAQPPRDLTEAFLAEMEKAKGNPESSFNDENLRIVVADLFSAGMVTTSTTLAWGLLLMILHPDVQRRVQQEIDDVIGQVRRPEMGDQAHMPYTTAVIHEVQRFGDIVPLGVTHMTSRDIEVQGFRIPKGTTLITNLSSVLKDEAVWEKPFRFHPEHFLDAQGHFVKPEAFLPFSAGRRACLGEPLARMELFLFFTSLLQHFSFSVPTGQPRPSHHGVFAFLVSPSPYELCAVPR
The target in a further data set is CYP2C9 (Homo sapiens, UniProt P11712). Description: CYP inhibition in human liver microsomes. The following applies: human, human liver microsomes, probe diclofenac.
CYP2C9, sequence (P11712 whole entry): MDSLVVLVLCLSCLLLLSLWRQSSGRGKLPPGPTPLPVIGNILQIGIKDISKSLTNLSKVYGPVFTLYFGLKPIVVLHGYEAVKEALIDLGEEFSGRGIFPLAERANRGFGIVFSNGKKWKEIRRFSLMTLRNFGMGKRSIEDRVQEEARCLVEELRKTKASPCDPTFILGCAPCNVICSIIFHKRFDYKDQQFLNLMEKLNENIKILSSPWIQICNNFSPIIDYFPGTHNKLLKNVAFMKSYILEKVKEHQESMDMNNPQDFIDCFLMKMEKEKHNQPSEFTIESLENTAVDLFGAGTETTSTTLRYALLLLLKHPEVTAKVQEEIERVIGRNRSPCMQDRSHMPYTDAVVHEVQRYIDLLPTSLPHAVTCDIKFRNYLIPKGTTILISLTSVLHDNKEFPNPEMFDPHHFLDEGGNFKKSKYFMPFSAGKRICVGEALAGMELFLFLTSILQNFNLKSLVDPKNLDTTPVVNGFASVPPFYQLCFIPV
The target of a further data set is T3, CYP2B6 (Homo sapiens, UniProt P20813).
T3 sequence (P20813 1-491): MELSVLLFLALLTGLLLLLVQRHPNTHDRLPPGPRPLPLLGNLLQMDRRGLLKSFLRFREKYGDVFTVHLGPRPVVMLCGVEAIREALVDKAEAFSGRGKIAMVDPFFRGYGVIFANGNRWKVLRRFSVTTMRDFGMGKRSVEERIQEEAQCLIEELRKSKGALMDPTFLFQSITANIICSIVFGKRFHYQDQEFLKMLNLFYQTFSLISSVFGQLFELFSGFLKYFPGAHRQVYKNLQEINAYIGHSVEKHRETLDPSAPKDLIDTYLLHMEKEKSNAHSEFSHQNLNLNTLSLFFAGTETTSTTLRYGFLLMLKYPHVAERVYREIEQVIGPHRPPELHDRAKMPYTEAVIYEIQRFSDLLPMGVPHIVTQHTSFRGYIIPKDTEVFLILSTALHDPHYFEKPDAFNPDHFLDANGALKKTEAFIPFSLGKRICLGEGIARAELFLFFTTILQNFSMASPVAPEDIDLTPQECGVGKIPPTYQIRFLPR
The data set is described as follows: CYP inhibition in human liver microsomes. The following applies: human, human liver microsomes, probe bupropion.

The next data set concerns the target CYP2C19 (Homo sapiens, UniProt P33261). Description: CYP inhibition in human liver microsomes. The following applies: human, human liver microsomes, probe mephenytoin.
The target in data set [3] is T1, CYP2C8. Description: in vitro. The following applies: microsomes.
Data set [4] addresses T2, CYP1A2. The data set is described as follows: CYP inhibition in human liver microsomes. As to conditions: human, human liver microsomes, probe phenacetin.
[5] abbreviates: CYP activity (% of Control) 3A4 (Midazolam).
[6] abbreviates: CYP activity (% of Control) 3A4 (Testosterone).

CYP3A4, sequence (P08684 2-503): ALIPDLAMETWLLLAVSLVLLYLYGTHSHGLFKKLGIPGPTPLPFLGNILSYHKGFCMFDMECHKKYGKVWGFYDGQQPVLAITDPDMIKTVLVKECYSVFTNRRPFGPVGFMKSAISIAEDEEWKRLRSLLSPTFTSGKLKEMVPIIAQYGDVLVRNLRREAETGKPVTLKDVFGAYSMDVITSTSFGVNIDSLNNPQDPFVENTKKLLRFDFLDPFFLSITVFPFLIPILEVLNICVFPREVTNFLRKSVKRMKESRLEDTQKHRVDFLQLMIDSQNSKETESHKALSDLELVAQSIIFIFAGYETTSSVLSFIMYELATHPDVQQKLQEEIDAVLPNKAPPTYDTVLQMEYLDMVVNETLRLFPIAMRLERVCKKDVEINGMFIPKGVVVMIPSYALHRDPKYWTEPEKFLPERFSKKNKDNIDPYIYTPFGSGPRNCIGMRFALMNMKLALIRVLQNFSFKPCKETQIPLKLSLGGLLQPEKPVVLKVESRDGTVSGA
CYP2C19, sequence (P33261 whole entry): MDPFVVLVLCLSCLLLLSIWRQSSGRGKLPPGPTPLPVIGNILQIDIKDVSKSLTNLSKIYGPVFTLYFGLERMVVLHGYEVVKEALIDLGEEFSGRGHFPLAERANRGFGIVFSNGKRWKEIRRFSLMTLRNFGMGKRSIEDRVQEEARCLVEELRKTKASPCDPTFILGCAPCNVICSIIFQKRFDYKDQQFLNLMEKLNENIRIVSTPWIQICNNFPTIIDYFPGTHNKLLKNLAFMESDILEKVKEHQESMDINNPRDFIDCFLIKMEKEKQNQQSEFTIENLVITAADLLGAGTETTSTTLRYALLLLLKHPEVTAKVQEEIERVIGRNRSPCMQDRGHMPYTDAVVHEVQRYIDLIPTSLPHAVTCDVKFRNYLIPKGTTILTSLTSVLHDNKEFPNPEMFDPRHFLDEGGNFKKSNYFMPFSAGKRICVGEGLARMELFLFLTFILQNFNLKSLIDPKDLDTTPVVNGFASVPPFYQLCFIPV

Take `Cc1nc2c([nH]1)c(=O)n(C)c(=O)n2Cc1ccco1` [Furafylline]: the activity at 20 min, 10 µM is 97.2 ± 4.7% on CYP3A4 (setting [5]); 95.1 ± 5.6% at CYP3A4 (setting [6]); 89.9 ± 1.4% on CYP2C8 [1]; 49 ± 5.3% at CYP1A2 [2]; 94.7 ± 1.1% at CYP2D6; 96.3 ± 1.4% on CYP2C9. Moreover, the activity at 20 min, 10 µM worked out at 97.3 ± 2.9% on CYP2B6 and 94.3 ± 8.1% on CYP2C19.
`CC(C)(O)c1ccccc1CC[C@@H](SCC1(CC(=O)O)CC1)c1cccc(/C=C/c2ccc3ccc(Cl)cc3n2)c1` [Montelukast]: the activity at 20 min, 10 µM on CYP3A4 (setting [5]) stood at 93.8 ± 3.9%; on CYP3A4 (setting [6]) it was 93.1 ± 2%; on CYP2C8 [3], 10.3 ± 0.7%; on CYP1A2 [4], 91 ± 1.8%; on CYP2D6, 88.4 ± 1.8%; on CYP2C9, 75.4 ± 0.9%. For the same molecule, the activity at 20 min, 10 µM at CYP2B6 was found to be 90.5 ± 1.3%; on CYP2C19, 105 ± 2%.
